According to ChEMBL document CHEMBL2440076, “New triarylpyrazoles as broad-spectrum anticancer agents: design, synthesis, and biological evaluation” (Eur J Med Chem, 2013):

What was measured:
Assay type in all cases: functional
K562 = test: Growth inhibition of human K562 cells assessed as cell growth at 3X10'-8 M after 48 hrs by sulforhodamine B assay; settings: K562, 48 h, read-out: Activity
KM12 [1] = test: Growth inhibition of human KM12 cells assessed as cell growth at 3X10'-6 M after 48 hrs by sulforhodamine B assay; settings: KM12, 48 h, read-out: Activity
SK-MEL-2 [2] = test: Growth inhibition of human SK-MEL-2 cells assessed as cell growth at 3X10'-6 M after 48 hrs by sulforhodamine B assay; settings: SK-MEL-2, 48 h, read-out: Activity
[3] = Growth inhibition of human HCC2998 cells assessed as cell growth at 3X10'-6 M after 48 hrs by sulforhodamine B assay; settings: HCC 2998, 48 h, read-out: Activity
RXF 393 = test: Growth inhibition of human RXF393 cells assessed as cell growth at 3X10'-6 M after 48 hrs by sulforhodamine B assay; settings: RXF 393, 48 h, read-out: Activity
RPMI-8226 = test: Growth inhibition of human RPMI8226 cells assessed as cell growth at 3X10'-6 M after 48 hrs by sulforhodamine B assay; settings: RPMI-8226, 48 h, read-out: Activity
OVCAR-3 = test: Growth inhibition of human OVCAR3 cells assessed as cell growth at 3X10'-6 M after 48 hrs by sulforhodamine B assay; settings: OVCAR-3, 48 h, read-out: Activity
ACHN = test: Growth inhibition of human ACHN cells assessed as cell growth at 3X10'-6 M after 48 hrs by sulforhodamine B assay; settings: read-out: Activity
SNB-75 [4] = test: Growth inhibition of human SNB75 cells assessed as cell growth at 3X10'-5 M after 48 hrs by sulforhodamine B assay; settings: SNB-75, 48 h, read-out: Activity
SK-MEL-5 = test: Growth inhibition of human SK-MEL-5 cells assessed as cell growth at 3X10'-5 M after 48 hrs by sulforhodamine B assay; settings: SK-MEL-5, 48 h, read-out: Activity
SR [5] = test: Growth inhibition of human SR cells assessed as cell growth at 3X10'-9 M after 48 hrs by sulforhodamine B assay; settings: read-out: Activity
HOP-92 [6] = test: Growth inhibition of human HOP92 cells assessed as cell growth at 3X10'-6 M after 48 hrs by sulforhodamine B assay; settings: HOP-92, 48 h, read-out: Activity
DU-145 [7] = test: Growth inhibition of human DU145 cells assessed as cell growth at 3X10'-9 M after 48 hrs by sulforhodamine B assay; settings: DU-145, 48 h, read-out: Activity
SR [8] = test: Growth inhibition of human SR cells assessed as cell growth at 3X10'-8 M after 48 hrs by sulforhodamine B assay; settings: read-out: Activity
SF-268 = test: Growth inhibition of human SF268 cells assessed as cell growth at 3X10'-8 M after 48 hrs by sulforhodamine B assay; settings: SF-268, 48 h, read-out: Activity
HCT-116 = test: Growth inhibition of human HCT116 cells assessed as cell growth at 3X10'-5 M after 48 hrs by sulforhodamine B assay; settings: HCT-116, 48 h, read-out: Activity
CCRF-CEM [9] = test: Growth inhibition of human CCRF-CEM cells assessed as cell growth at 3X10'-9 M after 48 hrs by sulforhodamine B assay; settings: read-out: Activity
HOP-92 [10] = test: Growth inhibition of human HOP92 cells assessed as cell growth at 3X10'-9 M after 48 hrs by sulforhodamine B assay; settings: HOP-92, 48 h, read-out: Activity
MOLT-4 = test: Growth inhibition of human MOLT4 cells assessed as cell growth at 3X10'-6 M after 48 hrs by sulforhodamine B assay; settings: MOLT-4, 48 h, read-out: Activity
NCI-H23 = test: Growth inhibition of human NCI-H23 cells assessed as cell growth at 3X10'-9 M after 48 hrs by sulforhodamine B assay; settings: NCI-H23, 48 h, read-out: Activity
OVCAR-8 = test: Growth inhibition of human OVCAR8 cells assessed as cell growth at 3X10'-5 M after 48 hrs by sulforhodamine B assay; settings: OVCAR-8, 48 h, read-out: Activity
BT-549 = test: Growth inhibition of human BT549 cells assessed as cell growth at 3X10'-7 M after 48 hrs by sulforhodamine B assay; settings: BT-549, 48 h, read-out: Activity
SK-MEL-2 [11] = test: Growth inhibition of human SK-MEL-2 cells assessed as cell growth at 3X10'-9 M after 48 hrs by sulforhodamine B assay; settings: SK-MEL-2, 48 h, read-out: Activity
NCI-H226 = test: Growth inhibition of human NCI-H226 cells assessed as cell growth at 3X10'-6 M after 48 hrs by sulforhodamine B assay; settings: NCI-H226, 48 h, read-out: Activity
SW-620 = test: Growth inhibition of human SW620 cells assessed as cell growth at 3X10'-8 M after 48 hrs by sulforhodamine B assay; settings: SW-620, 48 h, read-out: Activity
OVCAR-5 = test: Growth inhibition of human OVCAR5 cells assessed as cell growth at 3X10'-6 M after 48 hrs by sulforhodamine B assay; settings: OVCAR-5, 48 h, read-out: Activity
MDA-MB-435 = test: Growth inhibition of human MDA-MB-435 cells assessed as cell growth at 3X10'-9 M after 48 hrs by sulforhodamine B assay; settings: MDA-MB-435, 48 h, read-out: Activity
CCRF-CEM [12] = test: Growth inhibition of human CCRF-CEM cells assessed as cell growth at 3X10'-5 M after 48 hrs by sulforhodamine B assay; settings: read-out: Activity
T47D = test: Growth inhibition of human T47D cells assessed as cell growth at 3X10'-6 M after 48 hrs by sulforhodamine B assay; settings: read-out: Activity
HCT-15 = test: Growth inhibition of human HCT15 cells assessed as cell growth at 3X10'-9 M after 48 hrs by sulforhodamine B assay; settings: HCT-15, 48 h, read-out: Activity
MDA-MB-231 = test: Growth inhibition of human MDA-MB-231 cells assessed as cell growth at 3X10'-8 M after 48 hrs by sulforhodamine B assay; settings: MDA-MB-231, 48 h, read-out: Activity
SNB-75 [13] = test: Growth inhibition of human SNB75 cells assessed as cell growth at 3X10'-8 M after 48 hrs by sulforhodamine B assay; settings: SNB-75, 48 h, read-out: Activity
HOP-92 [14] = test: Growth inhibition of human HOP92 cells assessed as cell growth at 3X10'-5 M after 48 hrs by sulforhodamine B assay; settings: HOP-92, 48 h, read-out: Activity
KM12 [15] = test: Growth inhibition of human KM12 cells assessed as cell growth at 3X10'-9 M after 48 hrs by sulforhodamine B assay; settings: KM12, 48 h, read-out: Activity
CCRF-CEM [16] = test: Growth inhibition of human CCRF-CEM cells assessed as cell growth at 3X10'-7 M after 48 hrs by sulforhodamine B assay; settings: read-out: Activity
DU-145 [17] = test: Growth inhibition of human DU145 cells assessed as cell growth at 3X10'-6 M after 48 hrs by sulforhodamine B assay; settings: DU-145, 48 h, read-out: Activity

SMILES: O=C(Nc1cccc(-n2cc(-c3ccncc3)c(-c3ccc(Cl)c(O)c3)n2)c1)Nc1ccc(Cl)c(C(F)(F)F)c1
- growth at 0.03 µM (K562): 105%
- growth at 3 µM (KM12 [1]): 2%
- growth at 3 µM (SK-MEL-2 [2]): -41%
- growth at 3 µM [3]: 7%
- growth at 3 µM (RXF 393): -28%
- growth at 3 µM (RPMI-8226): -20%
- growth at 3 µM (OVCAR-3): -24%
- growth at 3 µM (ACHN): 8%
- growth at 30 µM (SNB-75 [4]): -31%
- growth at 30 µM (SK-MEL-5): -97%
- growth at 0.003 µM (SR [5]): 106%
- growth at 3 µM (HOP-92 [6]): -30%
- growth at 0.003 µM (DU-145 [7]): 101%
- growth at 0.03 µM (SR [8]): 104%
- growth at 0.03 µM (SF-268): 103%
- growth at 30 µM (HCT-116): -43%
- growth at 0.003 µM (CCRF-CEM [9]): 98%
- growth at 0.003 µM (HOP-92 [10]): 79%
- growth at 3 µM (MOLT-4): -4%
- growth at 0.003 µM (NCI-H23): 97%
- growth at 30 µM (OVCAR-8): -14%
- growth at 0.3 µM (BT-549): 104%
- growth at 0.003 µM (SK-MEL-2 [11]): 113%
- growth at 3 µM (NCI-H226): 30%
- growth at 0.03 µM (SW-620): 101%
- growth at 3 µM (OVCAR-5): 33%
- growth at 0.003 µM (MDA-MB-435): 97%
- growth at 30 µM (CCRF-CEM [12]): -14%
- growth at 3 µM (T47D): 11%
- growth at 0.003 µM (HCT-15): 98%
- growth at 0.03 µM (MDA-MB-231): 96%
- growth at 0.03 µM (SNB-75 [13]): 92%
- growth at 30 µM (HOP-92 [14]): -63%
- growth at 0.003 µM (KM12 [15]): 101%
- growth at 0.3 µM (CCRF-CEM [16]): 80%
- growth at 3 µM (DU-145 [17]): 10%

SMILES: O=C(Nc1cccc(-n2cc(-c3ccncc3)c(-c3ccc(Cl)c(O)c3)n2)c1)Nc1cccc(C(F)(F)F)c1
- growth at 0.03 µM (K562): 92%
- growth at 3 µM (KM12 [1]): 20%
- growth at 3 µM (SK-MEL-2 [2]): 35%
- growth at 3 µM [3]: 76%
- growth at 3 µM (RXF 393): 49%
- growth at 3 µM (RPMI-8226): 25%
- growth at 3 µM (OVCAR-3): 10%
- growth at 3 µM (ACHN): 21%
- growth at 30 µM (SNB-75 [4]): 1%
- growth at 30 µM (SK-MEL-5): -90%
- growth at 0.003 µM (SR [5]): 94%
- growth at 3 µM (HOP-92 [6]): -13%
- growth at 0.003 µM (DU-145 [7]): 101%
- growth at 0.03 µM (SR [8]): 99%
- growth at 0.03 µM (SF-268): 94%
- growth at 30 µM (HCT-116): -34%
- growth at 0.003 µM (CCRF-CEM [9]): 97%
- growth at 0.003 µM (HOP-92 [10]): 85%
- growth at 3 µM (MOLT-4): 36%
- growth at 0.003 µM (NCI-H23): 94%
- growth at 30 µM (OVCAR-8): 7%
- growth at 0.3 µM (BT-549): 102%
- growth at 0.003 µM (SK-MEL-2 [11]): 93%
- growth at 3 µM (NCI-H226): 66%
- growth at 0.03 µM (SW-620): 95%
- growth at 3 µM (OVCAR-5): 97%
- growth at 0.003 µM (MDA-MB-435): 102%
- growth at 30 µM (CCRF-CEM [12]): 7%
- growth at 3 µM (T47D): 44%
- growth at 0.003 µM (HCT-15): 95%
- growth at 0.03 µM (MDA-MB-231): 101%
- growth at 0.03 µM (SNB-75 [13]): 94%
- growth at 30 µM (HOP-92 [14]): -33%
- growth at 0.003 µM (KM12 [15]): 94%
- growth at 0.3 µM (CCRF-CEM [16]): 94%
- growth at 3 µM (DU-145 [17]): 33%
